Source: patent publication US5358951A, “Angiotensin II receptor blocking 2, 3, 6 substituted quinazolinones” (American Cyanamid Company, priority 1993, dated 1994)

Tested on: vasopressor response of angiotensin II
Test: AII Challenge: antagonism of angiotensin II vasopressor response;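 as to Response Average Change: post-dose Angiotensin II-evoked rise in systolic blood pressure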
Type: in vivo
Conditions: for inhibition in vivo at 1 mg/kg / inhibition in vivo at 5 mg/kg: Rattus norvegicus; for inhibition in vivo at 1 mg/kg: iv; for inhibition in vivo at 5 mg/kg: po
Summary of the method: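 Conscious male SHR (16-20 weeks) with aortic and caval cannulae received angiotensin II at 0.05 and 0.1 ug/kg i.v. before and 30-300 min after compound dosing (i.v., i.p. or oral). Blockade is expressed as % of each rat's predose rise in systolic pressure.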

For `CCCCc1nc2ccc([C@@]3(C)C[C@@H]4CCC(C)(C)N4O3)cc2c(=O)n1Cc1ccc(-c2ccccc2-c2nnn[nH]2)cc1` (relative stereo) [Example 66, Cis-2-Butyl-6-(hexahydro-2,6,6-trimethylpyrrolo[1,2-b]isoxazol-2-yl)-3-[[2'-(1H-tetrazol-5-yl)[1,1'-biphenyl]-4-yl]methyl]-4(3H)-quinazolinone], the “Response Average Change” value (1 mg/kg i.v., AII 0.05 mcg/kg IV, 30 min post dose) was 2.5 mmHg, the “Response Average Change” value (1 mg/kg i.v., AII 0.05 mcg/kg IV, 60 min post dose) was 0 mmHg and the “Response Average Change” value (1 mg/kg i.v., AII 0.05 mcg/kg IV, 90 min post dose) was 9 mmHg. The “Response Average Change” value (1 mg/kg i.v., AII 0.05 mcg/kg IV, 120 min post dose) was 11.5 mmHg, the “Response Average Change” value (1 mg/kg i.v., AII 0.05 mcg/kg IV, 180 min post dose) was 15 mmHg and the “Response Average Change” value (1 mg/kg i.v., AII 0.05 mcg/kg IV, 240 min post dose) was 12.5 mmHg. For the same compound, the “Response Average Change” value (1 mg/kg i.v., AII 0.05 mcg/kg IV, 300 min post dose) was 20 mmHg, the “Response Average Change” value (1 mg/kg i.v., AII 0.1 mcg/kg IV, 30 min post dose) was 5 mmHg and the “Response Average Change” value (1 mg/kg i.v., AII 0.1 mcg/kg IV, 60 min post dose) was 2.5 mmHg. For the same compound, the “Response Average Change” value (1 mg/kg i.v., AII 0.1 mcg/kg IV, 90 min post dose) was 7.5 mmHg, the “Response Average Change” value (1 mg/kg i.v., AII 0.1 mcg/kg IV, 120 min post dose) was 7.5 mmHg and the “Response Average Change” value (1 mg/kg i.v., AII 0.1 mcg/kg IV, 180 min post dose) was 14 mmHg. For the same compound, the “Response Average Change” value (1 mg/kg i.v., AII 0.1 mcg/kg IV, 240 min post dose) was 14 mmHg, the “Response Average Change” value (1 mg/kg i.v., AII 0.1 mcg/kg IV, 300 min post dose) was 17.5 mmHg and the “Response Average Change” value (5 mg/kg P.O., AII 0.05 mcg/kg IV, 30 min post dose) was 10 mmHg. The “Response Average Change” value (5 mg/kg P.O., AII 0.05 mcg/kg IV, 60 min post dose) was 7.5 mmHg, the “Response Average Change” value (5 mg/kg P.O., AII 0.05 mcg/kg IV, 90 min post dose) was 3 mmHg and the “Response Average Change” value (5 mg/kg P.O., AII 0.05 mcg/kg IV, 120 min post dose) was 7.5 mmHg. The “Response Average Change” value (5 mg/kg P.O., AII 0.05 mcg/kg IV, 180 min post dose) was 5 mmHg, the “Response Average Change” value (5 mg/kg P.O., AII 0.05 mcg/kg IV, 240 min post dose) was 5 mmHg and the “Response Average Change” value (5 mg/kg P.O., AII 0.05 mcg/kg IV, 300 min post dose) was 10 mmHg. The “Response Average Change” value (5 mg/kg P.O., AII 0.1 mcg/kg IV, 30 min post dose) was 21 mmHg, the “Response Average Change” value (5 mg/kg P.O., AII 0.1 mcg/kg IV, 60 min post dose) was 17.5 mmHg and the “Response Average Change” value (5 mg/kg P.O., AII 0.1 mcg/kg IV, 90 min post dose) was 2.5 mmHg. For the same compound, the “Response Average Change” value (5 mg/kg P.O., AII 0.1 mcg/kg IV, 120 min post dose) was 7.5 mmHg, the “Response Average Change” value (5 mg/kg P.O., AII 0.1 mcg/kg IV, 180 min post dose) was 12.5 mmHg and the “Response Average Change” value (5 mg/kg P.O., AII 0.1 mcg/kg IV, 240 min post dose) was 10 mmHg. For the same compound, the “Response Average Change” value (5 mg/kg P.O., AII 0.1 mcg/kg IV, 300 min post dose) was 10 mmHg, the inhibition in vivo at 1 mg/kg (0.5 h, 1 mg/kg i.v., AII 0.05 mcg/kg IV, 30 min post dose) was 93% and the inhibition in vivo at 1 mg/kg (0.5 h, 1 mg/kg i.v., AII 0.1 mcg/kg IV, 30 min post dose) was 89%. It also gave an inhibition in vivo at 1 mg/kg (1 h, 1 mg/kg i.v., AII 0.05 mcg/kg IV, 60 min post dose) of 100%, an inhibition in vivo at 1 mg/kg (1 h, 1 mg/kg i.v., AII 0.1 mcg/kg IV, 60 min post dose) of 94% and an inhibition in vivo at 1 mg/kg (2 h, 1 mg/kg i.v., AII 0.05 mcg/kg IV, 120 min post dose) of 69%. For the same compound, the inhibition in vivo at 1 mg/kg (2 h, 1 mg/kg i.v., AII 0.1 mcg/kg IV, 120 min post dose) was 83%, the inhibition in vivo at 1 mg/kg (3 h, 1 mg/kg i.v., AII 0.05 mcg/kg IV, 180 min post dose) was 60% and the inhibition in vivo at 1 mg/kg (3 h, 1 mg/kg i.v., AII 0.1 mcg/kg IV, 180 min post dose) was 68%. It also gave an inhibition in vivo at 1 mg/kg (4 h, 1 mg/kg i.v., AII 0.05 mcg/kg IV, 240 min post dose) of 67%, an inhibition in vivo at 1 mg/kg (4 h, 1 mg/kg i.v., AII 0.1 mcg/kg IV, 240 min post dose) of 68% and an inhibition in vivo at 1 mg/kg (5 h, 1 mg/kg i.v., AII 0.05 mcg/kg IV, 300 min post dose) of 47%. For the same compound, the inhibition in vivo at 1 mg/kg (5 h, 1 mg/kg i.v., AII 0.1 mcg/kg IV, 300 min post dose) was 60%, the inhibition in vivo at 1 mg/kg ([…], 1 mg/kg i.v., AII 0.05 mcg/kg IV, 90 min post dose) was 76% and the inhibition in vivo at 1 mg/kg ([…], 1 mg/kg i.v., AII 0.1 mcg/kg IV, 90 min post dose) was 83%. It also gave an inhibition in vivo at 5 mg/kg (0.5 h, 5 mg/kg P.O., AII 0.05 mcg/kg IV, 30 min post dose) of 77%, an inhibition in vivo at 5 mg/kg (0.5 h, 5 mg/kg P.O., AII 0.1 mcg/kg IV, 30 min post dose) of 52% and an inhibition in vivo at 5 mg/kg (1 h, 5 mg/kg P.O., AII 0.05 mcg/kg IV, 60 min post dose) of 83%. The inhibition in vivo at 5 mg/kg (1 h, 5 mg/kg P.O., AII 0.1 mcg/kg IV, 60 min post dose) was 60%, the inhibition in vivo at 5 mg/kg (2 h, 5 mg/kg P.O., AII 0.05 mcg/kg IV, 120 min post dose) was 83% and the inhibition in vivo at 5 mg/kg (2 h, 5 mg/kg P.O., AII 0.1 mcg/kg IV, 120 min post dose) was 83%. For the same compound, the inhibition in vivo at 5 mg/kg (3 h, 5 mg/kg P.O., AII 0.05 mcg/kg IV, 180 min post dose) was 89%, the inhibition in vivo at 5 mg/kg (3 h, 5 mg/kg P.O., AII 0.1 mcg/kg IV, 180 min post dose) was 72% and the inhibition in vivo at 5 mg/kg (4 h, 5 mg/kg P.O., AII 0.05 mcg/kg IV, 240 min post dose) was 89%. The inhibition in vivo at 5 mg/kg (4 h, 5 mg/kg P.O., AII 0.1 mcg/kg IV, 240 min post dose) was 77%, the inhibition in vivo at 5 mg/kg (5 h, 5 mg/kg P.O., AII 0.05 mcg/kg IV, 300 min post dose) was 77% and the inhibition in vivo at 5 mg/kg (5 h, 5 mg/kg P.O., AII 0.1 mcg/kg IV, 300 min post dose) was 77%. It also gave an inhibition in vivo at 5 mg/kg ([…], 5 mg/kg P.O., AII 0.05 mcg/kg IV, 90 min post dose) of 93% and an inhibition in vivo at 5 mg/kg ([…], 5 mg/kg P.O., AII 0.1 mcg/kg IV, 90 min post dose) of 94%.
